Converted amounts (≈) assume the structure as drawn.

Broadly, the IC50 is the concentration needed to halve the response being measured. Low readings indicate greater potency in that assay, high ones weaker potency in that assay.

The assay deals with HCT116 cell line (colorectal cancer). Put plainly: Anti-proliferative activity assay (WST-8, 4 days). Type of assay: cell-based. The note with it: Homo sapiens, HCT-116, 96 h; in vitro growth of HCT116 cells, 4 days incubation, WST-8 readout. As to the method:
A single suspension of tumor cells was inoculated to the serially diluted 96-well microtestplate. Then the testplate was incubated in the 5% CO2 ambience at 37° C. for 4 days (2-3×10^3 cells/well). The degree of cell growth in a monolayer was measured by using WST-8 (Dojindo, Japan). IC50 values of the polycyclic compounds concerned against tumor cells were calculated as the concentration of drug yielding 50% OD of the control growth. The IC50 value measures the drug concentration for 50% inhibition of the growth of tumor cells in vitro as compared to the control.
The anti-tumor activity of polycyclic compounds of the formula [I] against in vitro growth of HCT116 cell line (colorectal cancer) is summarized in Table 1.
A general note: Formazan colour is commonly taken as a measure of viable cells.
For the compound `Cc1c(O)ccc2c3c(c(NCCN(C)C)nc12)C(=O)c1cnccc1-3` [Example 46, 6-(2-dimethylamino-ethylamino)-3-hydroxy-4-methyl-5,9-diaza-benzo[c]fluoren-7-one], the IC50 worked out at 2.2 ng/mL (≈ 0.00631 µM).

In the case of `CN(C)CCNc1nc2cc(O)ccc2c2c1C(=O)c1cnccc1-2` [Example 41, 6-(2-dimethylamino-ethylamino)-3-hydroxy-5,9-diaza-benzo[c]fluoren-7-one], the IC50 was found to be 0.35 ng/mL (≈ 0.00105 µM).

`Cc1c(O)ccc2c3c(c(NCCN(C)C)nc12)C(=O)c1ccncc1-3` [Example 45, 6-(2-dimethylamino-ethylamino)-3-hydroxy-4-methyl-5,10-diaza-benzo[c]fluoren-7-one] came in with an IC50 of 3.9 ng/mL (≈ 0.0112 µM).

Turning to `Cc1cc2c(cn1)-c1c(c(NCCN(C)C)nc3cc(O)ccc13)C2=O` [Example 47, 6-(2-dimethylamino-ethylamino)-3-hydroxy-9-methyl-5,10-diaza-benzo[c]fluoren-7-one], the IC50 came to 3.9 ng/mL (≈ 0.0112 µM).

On to `CN(C)CCNc1nc2cc(O)ccc2c2c1C(=O)c1ccccc1-2` [Reference compound, 6-(2-dimethylamino-ethylamino)-3-hydroxy-7H-indeno[2,1-c]quinolin-7-one, reference compound], for which the IC50 was 12 ng/mL (≈ 0.036 µM).
